Several values for one entry are separate records, joined by “and”; a condition that tells them apart may be missing. Identical values can stand only once. Activity calls are given as the source filed them. How the calls were made is not given here.

Our source for the Kd values is PubChem BioAssay AID608 (Sanford-Burnham Center for Chemical Genomics, 2007).

In this assay the target is Peptidyl-prolyl cis-trans isomerase FKBP1A (Homo sapiens) (UniProt P62942). The assay can be described thus: FKBP12 binders, biophysical, NMR detection (AID 608). To be noted: NMR binding, purified FKBP12.
Sequence of Peptidyl-prolyl cis-trans isomerase FKBP1A (Homo sapiens) (P62942 whole entry, looked up): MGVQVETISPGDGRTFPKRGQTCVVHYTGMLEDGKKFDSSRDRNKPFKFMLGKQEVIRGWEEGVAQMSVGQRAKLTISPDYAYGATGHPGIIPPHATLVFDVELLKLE
For `CCCn1cnn2c(=O)cc(C)nc12`, the Kd is > 4 mM (inactive).

For the compound `Nc1ccccc1OC(F)(F)F`, the Kd is > 4 mM (inactive).

Regarding `Cc1nnc2n(c1=O)N=C(c1ccccc1)CS2`, the Kd was > 4 mM (inactive).

Regarding `Cc1nc(NC2=NCCC(=O)N2)nc2ccccc12`, the Kd was > 4 mM (inactive).

In the case of `Nc1ccc2c(c1)CCC2=O`, the Kd was > 4 mM (inactive).

As for `CSc1nc(=O)[nH]c2c1CCC2`, the Kd was > 4 mM (inactive).

On to `Cc1cc(NC(=O)c2cc(C)on2)no1`, for which the Kd is > 4 mM (inactive).

Turning to `O=S1(=O)CCC2CC=CCC21` (stereo unspecified), the Kd is > 4 mM (inactive).

As to `Cc1noc(C)c1C(=O)N1CCN(c2ncccn2)CC1`, the Kd is > 4 mM (inactive).

On to `COC(=O)C[C@@H]1C2(C)C(=O)[C@@H](CC3=C4CC(O)O[C@@H](c5ccoc5)[C@]4(C)CCC32)[C@H](O)C1(C)C` (stereo partly specified), for which the Kd was > 4 mM (inactive).

Turning to `O=C(O)c1ccc(N2CCOCC2)nc1`, the Kd is > 4 mM (inactive).

For `C=C(C)[C@H]1Cc2c(ccc3c2O[C@@H]2COc4cc(OC)c(OC)cc4[C@@H]2C3=O)O1`, the Kd is > 4 mM (inactive).

For `Cc1cc(C(=O)NCc2ccccc2Br)no1`, the Kd is > 4 mM (inactive).

In the case of `CC(=O)Nc1ccc(S(=O)(=O)N2CCN=C2C)cc1`, the Kd is > 4 mM (inactive).

Regarding `Cc1cc(NC(=O)c2ocnc2C)no1`, the Kd was > 4 mM (inactive).

For `NC(=O)COc1cccc2cccnc12`, the Kd is > 4 mM (inactive).

Turning to `COc1ccc(-c2c(OC)c3c(OC)c4c(cc3oc2=O)OC(C)(C)C=C4)cc1`, the Kd is > 4 mM (inactive).

With `CSc1nc(C)cc(-n2ccc(=O)[nH]c2=O)n1`, the Kd is > 4 mM (inactive).

For the compound `CCCC(=O)N1CCSCC1`, the Kd was > 4 mM (inactive).

`Cc1nc(-c2cccc(N)c2)cs1`: the Kd was > 4 mM (inactive).

On to `O=c1[nH]c2sc3c(c2c2nncn12)CCCC3`, for which the Kd is > 4 mM (inactive).

In the case of `Cc1cccn2cc(CNc3ccccc3)nc12`, the Kd was > 4 mM (inactive).

On to `Cc1ccc(-n2cnnn2)c2cccnc12`, for which the Kd is > 4 mM (inactive).

On to `Cn1c([O-])c([N+](C)(C)C)c(=O)n(C)c1=O`, for which the Kd was > 4 mM (inactive).

Take `Cn1cnc2c(Cl)ncnc21`: the Kd is > 4 mM (inactive).

In the case of `Cc1ccc2c(c1)=C(c1sc(N)nc1O)C(=O)N=2`, the Kd is > 4 mM (inactive).

Take `CCC(/C=C/[C@@H](C)[C@H]1CCC2C3CC=C4C[C@@H](O)CC[C@]4(C)C3CC[C@@]21C)C(C)C` (stereo partly specified): the Kd is > 4 mM (inactive).

With `O=C(Nc1ccccc1C(F)(F)F)c1cnccn1`, the Kd is > 4 mM (inactive).

Take `Cc1occc1C(=O)Nc1ccc2c(c1)CCC2`: the Kd was > 4 mM (inactive).

Turning to `O=C(c1ccccc1)N1CCOCC1`, the Kd is > 4 mM (inactive).

On to `COc1cc2ccc(=O)oc2c2ccoc12`, for which the Kd is > 4 mM (inactive).

`Cc1cccc(N2C(=O)CCC2=O)n1`: the Kd is > 4 mM (inactive).

For `CN1C2CCC1CC(OC(=O)C(CO)c1ccccc1)C2` (stereo unspecified), the Kd is > 4 mM (inactive).

On to `Cc1c(CCO)c(=O)n2c([nH]c3ccccc32)c1C#N`, for which the Kd was > 4 mM (inactive).

Consider `CCN1C[C@@]2(COC)C3[C@@H](OC)[C@H]4[C@@H]1[C@]3(C(OC)C[C@H]2O)C1C[C@@]2(O)[C@H](OC(=O)c3ccccc3)C1[C@]4(OC(C)=O)[C@@H](O)[C@@H]2OC` (stereo partly specified), for which the Kd is > 4 mM (inactive).

Turning to `CN(C)C(=S)Nc1ccc([N+](=O)[O-])cc1`, the Kd was > 4 mM (inactive).

Regarding `Cc1ccc(C)c(C(=O)NCc2ccncc2)c1`, the Kd was > 4 mM (inactive).

Take `NC(=O)CSc1nnnn1-c1ccccc1`: the Kd is > 4 mM (inactive).

Regarding `O=c1cc(-c2ccc(O)cc2)[nH]c(=S)[nH]1`, the Kd was > 4 mM (inactive).

Consider `Cc1cc(N)n(C2CCOC(C)(C)C2)n1` (stereo unspecified), for which the Kd is > 4 mM (inactive).

Take `Nc1ccc(CN2CCOCC2)cc1`: the Kd is > 4 mM (inactive).

For `NC(=O)C1CCN(CC2CC=CCC2)CC1` (stereo unspecified), the Kd was > 4 mM (inactive).

In the case of `COc1cc(-c2coc3cc(OC)c(OC)c(OC)c3c2=O)cc(OC)c1OC`, the Kd is > 4 mM (inactive).

With `CC1NC(C(=O)O)Cc2c1[nH]c1ccccc21` (stereo unspecified), the Kd was > 4 mM (inactive).

With `NC(=O)Cn1nc(-c2ccc(F)cc2)ccc1=O`, the Kd is > 4 mM (inactive).

In the case of `Cc1cc(=O)c2c(O)cc(O)c(C)c2o1`, the Kd was > 4 mM (inactive).

For the compound `COCC(=O)Nc1cc2c3c(c1)CCN3C(=O)CC2`, the Kd is > 4 mM (inactive).

As to `Nc1cc(C(=O)O)ccc1N1CCCCCC1`, the Kd was > 4 mM (inactive).

As to `O=C(Nc1ncccn1)c1cccc(F)c1`, the Kd is > 4 mM (inactive).

In the case of `O=C(NN=C1CCCC1)c1ccncc1`, the Kd was > 4 mM (inactive).

Regarding `Nc1nc(-c2nc3ccccc3[nH]2)cs1`, the Kd was 0.068 mM and 0.098 mM.

`CC1CC2(NC(=O)NC2=O)C(C)CN1C` (stereo unspecified): the Kd is > 4 mM (inactive).

For `COCC(=O)Nc1c(C(N)=O)oc2ccccc12`, the Kd is > 4 mM (inactive).

As for `Cc1cc(C)c2ccc[n+]([O-])c2c1O`, the Kd is > 4 mM (inactive).

With `S=C(CN1CCCC1=S)N1CCOCC1`, the Kd was > 4 mM (inactive).

For the compound `Cc1nnsc1C(=O)N(C)c1ccccc1`, the Kd is > 4 mM (inactive).

For the compound `Cn1nc(C(=O)Nc2cccnc2)c2ccccc2c1=O`, the Kd was > 4 mM (inactive).

As to `O=c1[nH]c(NCCO)nnc1Cc1ccccc1`, the Kd was > 4 mM (inactive).

Take `O=C(c1sc2cc([N+](=O)[O-])ccc2c1Cl)N1CCOCC1`: the Kd entry was “inactive”.

Regarding `OCc1ccc(-n2cncn2)cc1`, the Kd is > 4 mM (inactive).

As to `O=C1C[C@@H](c2ccccc2)Oc2cc(O)cc(O)c21`, the Kd was > 4 mM (inactive).

With `NC(=O)CSCc1c(Cl)cccc1Cl`, the Kd is > 4 mM (inactive).

Take `Nc1ccc2c(c1)CCCC2=O`: the Kd was > 4 mM (inactive).

As to `O=C1C2CCCCC2C(=O)N1c1nccs1` (stereo unspecified), the Kd is > 4 mM (inactive).

As to `Nc1nc(CSc2ncn(-c3ccccc3)n2)cs1`, the Kd was > 4 mM (inactive).

`O=C(Nc1ccc2c(c1)OCO2)c1cccc(F)c1`: the Kd is > 4 mM (inactive).

As to `COc1nc(N2CCOCC2)nc(N)c1[N+](=O)[O-]`, the Kd is > 4 mM (inactive).

On to `Cc1occc1C(=O)Nc1sccc1C(N)=O`, for which the Kd was > 4 mM (inactive).

Consider `Cc1nc(-c2cc(C(=O)O)no2)cs1`, for which the Kd is > 4 mM (inactive).

`Cc1cc(C)nc(/N=C(\N)N2CCc3ccccc32)n1`: the Kd is > 4 mM (inactive).

On to `c1ccc(SCc2nc(-c3cccnc3)no2)cc1`, for which the Kd is > 4 mM (inactive).

With `O=C1C2CC=CCC2C(=O)N1c1ccccc1` (stereo unspecified), the Kd is 0.0261 mM.

For `O=C(Nc1nccs1)c1cccnc1`, the Kd is > 4 mM (inactive).

Consider `O=C(NCc1ccccc1Cl)c1cnn2cccnc12`, for which the Kd is > 4 mM (inactive).

As for `Cc1ncoc1C(=O)Nc1ccccc1C(N)=O`, the Kd is > 4 mM (inactive).

With `Oc1ccc(C(=S)N2CCCCC2)cc1Cl`, the Kd was > 4 mM (inactive).

Broadly, the Kd is a measure of binding affinity in units of concentration.
